The structures appear in SMILES notation.

Common to all, as to format: functional, cell-based
In one assay the test system is JIYOYE. Nature of the assay: Cytotoxicity against human EBV-positive Jijoye cells after 72 hrs by MTT assay.
The next assay relates to Jurkat. Description: Cytotoxicity against human Jurkat cells after 72 hrs by MTT assay. On the technique in general: Tetrazolium assays rely on reduction of a dye to a coloured formazan, in cell work by metabolically active cells.
The nature of assay [1]: Cytotoxicity against human LCL cells after 72 hrs by MTT assay.

One may read the IC50 as the midpoint of a concentration-inhibition curve. Read a low IC50 as greater potency in that assay. Take `CN1O[C@@H](n2ccc(N)nc2=O)C[C@@H]1c1ccccc1` (relative stereo): the IC50 (in the assay on JIYOYE; with Jurkat; in assay [1]) was > 100 µM in each case.
For the compound `Cc1cn([C@@H]2C[C@H](c3ccccc3Cl)N(C)O2)c(=O)[nH]c1=O` (relative stereo), the IC50 with JIYOYE was 28.5 µM; in the assay with Jurkat it was 8.8 µM; in assay [1], 52.6 µM.
In the case of `CC(C)(C)N1O[C@H](n2cc(F)c(=O)[nH]c2=O)C[C@@H]1c1ccccc1` (relative stereo), the values for the IC50 (in the assay on JIYOYE; with Jurkat; in assay [1]) were 63.1 µM, 60.6 µM and 67.5 µM, respectively.
Turning to `Cc1cn([C@@H]2C[C@H](c3ccco3)N(C(C)(C)C)O2)c(=O)[nH]c1=O` (relative stereo), the IC50 (in the assay with JIYOYE; in the assay on Jurkat; in assay [1]) was > 100 µM each time.
`CN1O[C@@H](n2ccc(N)nc2=O)C[C@H]1c1ccccc1` (relative stereo): the IC50 (in the assay with JIYOYE; in the assay with Jurkat; in assay [1]) was > 100 µM in each case.
For `Cc1cn([C@@H]2C[C@H](c3ccccc3)N(C)O2)c(=O)[nH]c1=O` (relative stereo), the IC50 came to 60.9 µM with JIYOYE, 76.6 µM with Jurkat and 82.5 µM in assay [1].
On the same counts, the results for `Cc1cn([C@@H]2C[C@H](c3ccccc3)N(C(C)(C)C)O2)c(=O)[nH]c1=O` (relative stereo) are 68.8 µM, 72.2 µM and 87.1 µM.
For the compound `Cc1cn([C@@H]2C[C@H](c3ccccc3)N(Cc3ccccc3)O2)c(=O)[nH]c1=O` (relative stereo), the IC50 in the assay with JIYOYE is 36.9 µM; in the assay with Jurkat, 19.3 µM; in assay [1] it was 55.2 µM.

The values above are taken from ChEMBL document CHEMBL1250537, “Synthesis and biological evaluation of diastereoisomerically pure N,O-nucleosides” (Bioorg Med Chem, 2010).
